One compound from patent publication US10308620B2, “Muscarinic M1 receptor positive allosteric modulators” (SUVEN LIFE SCIENCES LIMITED, priority 2015, dated 2019) can be followed below.

Assay [1] deals with rats. The assay can be described thus: Modulation of cerebral blood flow in frontal cortex (Laser Doppler). The format is in vivo, rat. The following applies: intravenous, anaesthetized rats; FIG. 6. The procedure:
Modulation of Cerebral Blood Flow in Frontal Cortex:
The effect of test compound on modulation of cerebral blood flow was evaluated using rats.
Rats were acclimatized to the laboratory environment for at least 7 days. Rats (300-350 grams) were housed in a group of four in a controlled environment (Temp=21±3° C.; Humidity=30-70%) and maintained on a 12-hour light/dark cycle with lights on at 07:00 AM. Food and water was provided ad libitum.
Rats were anaesthetized with 12% urethane (i.p.). Animal's body core temperature was maintained at 37° C. via a heating pad and rectal temperature probe. A small incision was made at one of the ventral side of the hind limb and the femoral vein was cannulated with PE10 tubing for drug application. Then animal was placed into a stereotaxic frame and a midline incision was made to expose the skull. A burr hole was drilled over the frontal cortex (stereotaxic coordinates 1 mm anterior and 4 mm lateral to bregma). Oxygen was supplied through the nose cone of the seterotaxic apparatus which was connected to the controlled gaseous supplier with a flow of 200 mL/minute. Laser Doppler probe (AD Instruments Inc) was placed over the hole to monitor cerebral blood flow. […] Data obtained was calculated as percent increase relative to resting basal blood flow level. […]

The test system of assay [2] is Male Wistar rats. Kind of assay: Object recognition task model (time induced memory deficit). It is filed as in vivo, rat. Here is the method:
Object Recognition Task Model
The cognition enhancing properties of compounds of this invention were estimated by using this model.
Male Wistar rats (8-10 weeks old) were used as experimental animals. Four animals were housed in each cage. Animals were kept on 20% food deprivation from a day prior to experimentation. Water was provided ad libitum throughout the experiment. Animals were maintained on a 12 hours light/dark cycle in temperature and humidity controlled room. The experiment was carried out in an open field made up of acrylic. Rats were habituated to individual arenas (open field) for 1 hour in the absence of any objects on day 1.
One group of 12 rats received vehicle and another set of animals received test compounds or test compounds and Donepezil, before the familiar (T1) and choice (T2) trials. During the familiarization phase, (T1), the rats were placed individually in the arena for 3 minutes, in which two identical objects (a1 and a2) were positioned 10 cm from the wall. 24 hours after T1, trial for long-term memory test was performed. The same rats were placed in the same arena as they were placed in T1 trial. During the choice phase (T2) rats were allowed to explore the arena for 3 minutes in presence of a copy of familiar object (a3) and one novel object (b). During the T1 and T2 trial, explorations of each object (defined as sniffing, licking, chewing or having moving vibrissae whilst directing the nose towards the object at a distance of less than 1 cm) were recorded using stopwatch.
T1 is the total time spent exploring the familiar objects (a1+a2).
T2 is the total time spent exploring the familiar object and novel object (a3+b). Discriminative index=Time spent with novel object/(time spent with novel and familiar object).
The object recognition test was performed as described in Behavioural Brain Research, 1988, 31, 47-59.

For assay [3], the system named is soluble amyloid precursor protein α (sAPPα). The assay can be described thus: Cortical sAPPα levels in rat brain (ELISA). The format is in vivo. The following applies: male Wistar rats, 10 mg/kg, i.p., sixty minutes post treatment; FIG. 5. The procedure:
Modulation of Soluble Amyloid Precursor Protein α (sAPPα) Levels in Cortex
Estimation of Cortical sAPPα Levels in Rat Brain
Male Wistar rats (250±40 grams) were randomly divided (n=8 group) into different treatment groups. Control group of rats were intraperitoneally (i.p.) administered with vehicle (99.75% of 0.25% HEC HHX+0.25% tween 80). Rats from treatment groups received a single intraperitoneal injection of test compound (dose volume of 2 mL/kg). Rats were sacrificed by cervical dislocation at 60 minutes after administration of test compound. Brains were quickly isolated and the cortex was dissected at −20° C. The cortex was immediately kept on a dry ice and weighed before being stored at −80° C. until quantification of sAPPα using Enzyme-linked immunosorbent assay (ELISA).
• 1. […]
To investigate the role of an acute treatment of test compound on sAPPα levels, the expression of this protein was measured in homogenates obtained from the cortex of treated and untreated rats by employing ELISA assay. […]
Statistical analyses were performed using the Graph Pad Prism (Version 4). Results are expressed as Mean±SEM levels of sAPPα expressed as percentage of control values (rats treated with vehicle). Statistical significance after treatment was assessed using One-Way ANOVA followed by Dunnett's post test and the significance level was set below p value less than 0.05.

Where [4] appears, read: 1 mg/kg, p.o., choice trial 24 hours after T1.

With `O=C(N[C@H]1CCCC[C@@H]1O)C1=CN(Cc2cccc(F)c2F)c2ccccc2O1` [Example 18, N-(cis-1S, 2S-2-Hydroxycyclohexyl)-4-(2,3-difluorobenzyl)-4H-benzo[1,4]oxazine-2-carboxamide], in assay [1], the “cerebral blood flow in the frontal cortex” value was “significantly increased”. Further, in assay [2] (1 mg/kg, p.o.), the Inference entry is listed as “Active”. Besides, in assay [2] (setting [4]), the “Exploration time mean ± S.E.M, Familiar object” value was determined as 8.74 ± 1.49 s and the “Exploration time mean ± S.E.M, Novel object” value was 16.47 ± 1.82 s. In addition, in assay [2] (in combination with donepezil, FIGS. 1 and 2), the Procognitive effects entry is on record as “better than the either treatment”. Also, the “mean maximum increase in cortical sAPPα levels” value in assay [3] is reported as 26%.
